Active and inactive are the calls of the source.
Tests used:
Type in all cases: functional, cell-based
[1] = test system: HepG2; experiment: Induction of autophagy in human HepG2 cells transfected with HBx assessed as decrease in HBx protein level upto 10 uM and measured after 6 hrs by western blot analysis; details: DDE = dose-dependent effect
[2] = test system: HepG2; experiment: Upregulation of HIV-RT in human HepG2 cells transfected with HIV-RT and gene knockdown by IL28A morpholinos at 10 uM incubated for 24 hrs by western blot analysis
[3] = test system: HepG2; experiment: Induction of autophagy in human HepG2 cells transfected with HCV subgenomic replicon assessed as HCV-NS5B/P62 combination at 10 uM incubated for 24 hrs in presence of anti-LC3B antibodies by co-immunoprecipitation assay
[4] = test system: HepG2; experiment: Effect on ZIKV-NS5 degradation in human HepG2 cells transfected with ZIKV-NS5 at 10 uM pretreated with proteosome inhibitor MG132 for 12 hrs followed by compound addition and measured after 24 hrs by western blot analysis
[5] = test system: HepG2; experiment: Upregulation of endogenous ATG10S activated co-localisation of HIV-RT with LAMP2 in human HepG2 cells co-transfected with HIV-RT and ATG10-misMO by cellular immunofluorescence assay
[6] = test system: HepG2; experiment: Induction of autophagy in human HepG2 cells assessed as decrease in P62 expression level upto 10 uM and measured after 6 hrs by western blot analysis; details: DDE = dose-dependent effect
[7] = test system: HepG2; experiment: Induction of autophagy in human HepG2 cells transfected with HCV subgenomic replicon assessed as HCV-NS5B/LAMP2 combination at 10 uM incubated for 24 hrs in presence of anti-LC3B antibodies by co-immunoprecipitation assay
[8] = test system: HepG2; experiment: Upregulation of P62 in human HepG2 cells transfected with HBx and gene knockdown by IL28A morpholinos at 10 uM incubated for 24 hrs by western blot analysis
[9] = test system: HepG2; experiment: Upregulation of endogenous ATG10S activated co-localisation of HIV-RT with LC3B in human HepG2 cells co-transfected with HIV-RT and ATG10-misMO by cellular immunofluorescence assay
[10] = test system: HepG2; experiment: Downregulation of ZIKV-NS5 in human HepG2 cells co-transfected with ZIKV-NS5 and ATG10-misMO upto 10 uM incubated for 24 hrs by western blot analysis
[11] = test system: HepG2; experiment: Upregulation of HCV-NS5B in human HepG2 cells transfected with HCV sub-replicon and gene knockdown by IL28A morpholinos at 10 uM incubated for 24 hrs by western blot analysis
[12] = test system: HepG2; experiment: Upregulation of endogenous ATG10S activated co-localisation of HBx with LC3B in human HepG2 cells co-transfected with HBx and ATG10-misMO by cellular immunofluorescence assay
[13] = test system: HepG2; experiment: Upregulation of IL28A mRNA expression level in human HepG2 cells transfected with HBV-X upto 10 uM by qRT-PCR analysis; details: DDE = dose-dependent effect
[14] = test system: HepG2; experiment: Upregulation of ATG10/ATG10S mRNA level in human HepG2 cells transfected with HCV sub-replicon upto 10 uM by RT-PCR analysis; details: DDE = dose-dependent effect
[15] = test system: HepG2; experiment: Effect on HIV-RT degradation in human HepG2 cells transfected with HIV-RT at 10 uM pretreated with proteosome inhibitor MG132 for 12 hrs followed by compound addition and measured after 24 hrs by western blot analysis
[16] = test system: HepG2; experiment: Effect on HCV-CORE degradation in human HepG2 cells transfected with HCV sub-replicon at 10 uM pretreated with proteosome inhibitor MG132 for 12 hrs followed by compound addition and measured after 24 hrs by western blot analysis
[17] = test system: HepG2; experiment: Downregulation of HCV-NS5B in human HepG2 cells transfected with HCV-subreplicon upto 10 uM incubated for 24 hrs by western blot analysis
[18] = test system: HepG2; experiment: Induction of autophagy in human HepG2 cells transfected with HBx assessed as increase in HBx-LC3B interaction level at 10 uM incubated for 24 hrs in presence of anti-Flag antibodies by co-immunoprecipitation assay
[19] = test system: HepG2; experiment: Induction of autophagy in human HepG2 cells transfected with ZIKV-NS5 assessed as increase in ZIKV-NS5-P62 interaction level at 10 uM incubated for 24 hrs in presence of anti-Flag antibodies by co-immunoprecipitation assay
[20] = test system: HepG2; experiment: Upregulation of ATG10/ATG10S mRNA level in human HepG2 cells transfected with HBx upto 10 uM by RT-PCR analysis; details: DDE = dose-dependent effect
[21] = test system: HepG2; experiment: Upregulation of IL28A mRNA expression level in human HepG2 cells transfected with HCV sub-replicon upto 10 uM by qRT-PCR analysis; details: DDE = dose-dependent effect
[22] = test system: HepG2; experiment: Upregulation of LC3B in human HepG2 cells transfected with HBx and gene knockdown by IL28A morpholinos at 10 uM incubated for 24 hrs by western blot analysis
[23] = test system: HepG2; experiment: Upregulation of P62 in human HepG2 cells transfected with HCV sub-replicon and gene knockdown by IL28A morpholinos at 10 uM incubated for 24 hrs by western blot analysis
[24] = test system: HepG2; experiment: Downregulation of HCV-CORE in human HepG2 cells co-transfected with HCV-subreplicon and ATG10-misMO upto 10 uM incubated for 24 hrs by western blot analysis
[25] = test system: HepG2; experiment: Induction of autophagy in human HepG2 cells transfected with ZIKV-NS5 and gene knockdown by IL28A morpholinos assessed as LC3B and LAMP2 interaction at 10 uM incubated for 24 hrs in presence of anti-LC3B antibodies by co-immunoprecipitation assay
[26] = test system: HepG2; experiment: Induction of autophagy in human HepG2 cells transfected with HCV subgenomic replicon assessed as HCV-NS5B/P62 combination at 10 uM incubated for 24 hrs in presence of anti-LAMP2 antibodies by co-immunoprecipitation assay
[27] = test system: HepG2; experiment: Induction of autophagy in human HepG2 cells transfected with HBx assessed as increase in HBx-LAMP2 interaction level at 10 uM incubated for 24 hrs in presence of anti-Flag antibodies by co-immunoprecipitation assay
[28] = test system: HepG2; experiment: Downregulation of HBVx in human HepG2 cells co-transfected with HBVx and ATG10-misMO upto 10 uM incubated for 24 hrs by western blot analysis
[29] = test system: HepG2; experiment: Upregulation of P62 in human HepG2 cells transfected with HIV-RT and gene knockdown by IL28A morpholinos at 10 uM incubated for 24 hrs by western blot analysis
[30] = test system: HepG2; experiment: Upregulation of IL28A mRNA expression level in human HepG2 cells transfected with HIV-RT upto 10 uM by qRT-PCR analysis; details: DDE = dose-dependent effect
[31] = test system: HepG2; experiment: Downregulation of HIV-RT in human HepG2 cells co-transfected with HIV-RT and ATG10-misMO upto 10 uM incubated for 24 hrs by western blot analysis
[32] = test system: HepG2; experiment: Induction of autophagy in human HepG2 cells transfected with HCV subgenomic replicon assessed as HCV-CORE/P62 combination at 10 uM incubated for 24 hrs in presence of anti-LC3B antibodies by co-immunoprecipitation assay
[33] = test system: HepG2; experiment: Upregulation of endogenous ATG10S activated co-localisation of HCV-NS5B with LC3B in human HepG2 cells co-transfected with HCV sub-replicon and ATG10-misMO by cellular immunofluorescence assay

Measured: Activity

CC[C@@H](O)c1nc(C)cc2c1C(=O)c1cc(=O)c3c(c(O)c1-2)O[C@@H]1O[C@H](C)[C@@H](OC)[C@@H](O)[C@]31O
active: [1] Dde | [2] | [3] | [4] | [5] | [6] Dde | [7] | [8] | [9] | [10] | [11] | [12] | [13] Dde | [14] Dde | [15] | [16] | [17] | [18] | [19] | [20] Dde | [21] Dde | [22] | [23] | [24] | [25] | [26] | [27] | [28] | [29] | [30] Dde | [31] | [32] | [33]

Reference: ChEMBL document CHEMBL5120764, “Isarubrolone C Promotes Autophagic Degradation of Virus Proteins via Activating ATG10S in HepG2 Cells” (J Nat Prod, 2022)
